From the supplement of paper PMC11208160

assay: recombinant UMI read abundance after kanamycin selection (control-corrected) (log10(CPM+1)); higher = more efficient recombination; extreme values may be limits of the assay; sequences stand for … in AGTGCAGAGAAAATCGGCCAGTTTTCTCTGCCTGCAGTCCGCATGCCGTGGGACCCCTTGGGTTCTAACCTGTTGCCTAGATTTATGCAGCGGACTGCCTTTCTCCCAAAGTGATAAACCGG…AGGTTGGTTTCACT; site = the 11-nt donor
Summary of the method: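 The measure is log10(CPM+1) for recombinant UMIs. These were PCR-amplified across the donor–target junction and sequenced after Escherichia coli carrying a donor and donor-binding-loop pair library and a target plasmid with T7-inducible IS621 bridge recombinase was plated on IPTG (0.07 mM) plus kanamycin or unselected. CPM were averaged over two replicates and scaled by control-derived factors.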
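Further: IS621 bridge recombinase in Escherichia coli cells against a fixed T5 target plasmid.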

| Sequence | recombinant UMI read abundance (log10) |
| --- | --- |
| CGTGCCTCATGGACCGGTTTTCCCGGTAATCCGTATTTGTC (site CGTGCCTCTGA) | 2.03 |
| CGTGGAACATGGACCGGTTTTCCCGGTAATCCGTATTTGTC (site CGTGGAACTAA) | 0 |
| CGTGGAACATGGACCGGTTTTCCCGGTAATCCGTATTTGTC (site CGTGGAACTCA) | 0.0117 |
| CGTGGAACATGGACCGGTTTTCCCGGTAATCCGTATTTGTC (site CGTGGAACTGA) | 1.94 |
| CGTGGAACATGGACCGGTTTTCCCGGTAATCCGTATTTGTC (site CGTGGAACTTA) | 0.519 |
| CGTGGACCATGGACCGGTTTTCCCGGTAATCCGTATTTGTT (site CGTGGAACTAA) | 0.00973 |
| CGTGGACCATGGACCGGTTTTCCCGGTAATCCGTATTTGTT (site CGTGGACCTAA) | 0.0211 |
| CGTGGACCATGGACCGGTTTTCCCGGTAATCCGTATTTGTT (site CGTGGAGCTAA) | 0.0186 |
| CGTGGACCATGGACCGGTTTTCCCGGTAATCCGTATTTGTT (site CGTGGATCTAA) | 0.722 |
| CGTGTATCATGGACCGGTTTTCCCGGTAATCCGTATTTGAC (site CGTGTATCTGT) | 1.26 |
| CGTGTATCATGGACCGGTTTTCCCGGTAATCCGTATTTGAC (site CTAGTATCTGT) | 0 |
| CGTTAAGCATGGACCGGTTTTCCCGGTAATCCGTATTTGAA (site CGTTAAGCTTT) | 2 |
| CGTTACACATGGACCGGTTTTCCCGGTAATCCGTATTTGAG (site CGTTAAACTCT) | 0.00268 |
| CGTTACACATGGACCGGTTTTCCCGGTAATCCGTATTTGAG (site CGTTACACTCT) | 1.43 |
| CGTTACACATGGACCGGTTTTCCCGGTAATCCGTATTTGAG (site CGTTAGACTCT) | 0.0129 |
| CGTTACACATGGACCGGTTTTCCCGGTAATCCGTATTTGAG (site CGTTATACTCT) | 0.202 |
| CGTTAGACATGGACCGGTTTTCCCGGTAATCCGTATTTGAC (site CGTTAGACTAT) | 0.0518 |
| CGTTAGACATGGACCGGTTTTCCCGGTAATCCGTATTTGAC (site CGTTAGACTCT) | 0.0193 |
| CGTTAGACATGGACCGGTTTTCCCGGTAATCCGTATTTGAC (site CGTTAGACTGT) | 1.58 |
| CGTTAGACATGGACCGGTTTTCCCGGTAATCCGTATTTGAC (site CGTTAGACTTT) | 0.0068 |
| CGTTAGACATGGACCGGTTTTCCCGGTAATCCGTATTTGAG (site AGTTAGACTCT) | 0.0858 |
| CGTTAGACATGGACCGGTTTTCCCGGTAATCCGTATTTGAG (site CATTAGACTCT) | 0.498 |
| CGTTAGACATGGACCGGTTTTCCCGGTAATCCGTATTTGAG (site CCTTAGACTCT) | 0.0362 |
| CGTTAGACATGGACCGGTTTTCCCGGTAATCCGTATTTGAG (site CGATAGACTCT) | 0.838 |
| CGTTAGACATGGACCGGTTTTCCCGGTAATCCGTATTTGAG (site CGCTAGACTCT) | 0.501 |

| Sequence | recombinant UMI read abundance (log10) |
| --- | --- |
| CGTTAGACATGGACCGGTTTTCCCGGTAATCCGTATTTGAG (site CGGTAGACTCT) | 0.157 |
| CGTTAGACATGGACCGGTTTTCCCGGTAATCCGTATTTGAG (site CGTAAGACTCT) | 0 |
| CGTTAGACATGGACCGGTTTTCCCGGTAATCCGTATTTGAG (site CGTCAGACTCT) | 0.944 |
| CGTTAGACATGGACCGGTTTTCCCGGTAATCCGTATTTGAG (site CGTGAGACTCT) | 0.0124 |
| CGTTAGACATGGACCGGTTTTCCCGGTAATCCGTATTTGAG (site CGTTAAACTCT) | 0.893 |
| CGTTAGACATGGACCGGTTTTCCCGGTAATCCGTATTTGAG (site CGTTACACTCT) | 0.00825 |
| CGTTAGACATGGACCGGTTTTCCCGGTAATCCGTATTTGAG (site CGTTAGACTAT) | 1.08 |
| CGTTAGACATGGACCGGTTTTCCCGGTAATCCGTATTTGAG (site CGTTAGACTCA) | 0.0196 |
| CGTTAGACATGGACCGGTTTTCCCGGTAATCCGTATTTGAG (site CGTTAGACTCC) | 0.374 |
| CGTTAGACATGGACCGGTTTTCCCGGTAATCCGTATTTGAG (site CGTTAGACTCG) | 0 |
| CGTTAGACATGGACCGGTTTTCCCGGTAATCCGTATTTGAG (site CGTTAGACTCT) | 1.55 |
| CGTTAGACATGGACCGGTTTTCCCGGTAATCCGTATTTGAG (site CGTTAGACTGT) | 0.00425 |
| CGTTAGACATGGACCGGTTTTCCCGGTAATCCGTATTTGAG (site CGTTAGACTTT) | 0.315 |
| CGTTAGACATGGACCGGTTTTCCCGGTAATCCGTATTTGAG (site CGTTAGCCTCT) | 0.021 |
| CGTTAGACATGGACCGGTTTTCCCGGTAATCCGTATTTGAG (site CGTTAGGCTCT) | 0.214 |
| CGTTAGACATGGACCGGTTTTCCCGGTAATCCGTATTTGAG (site CGTTAGTCTCT) | 0.506 |
| CGTTAGACATGGACCGGTTTTCCCGGTAATCCGTATTTGAG (site CGTTATACTCT) | 0.0136 |
| CGTTAGACATGGACCGGTTTTCCCGGTAATCCGTATTTGAG (site CGTTCGACTCT) | 0.00605 |
| CGTTAGACATGGACCGGTTTTCCCGGTAATCCGTATTTGAG (site CGTTGGACTCT) | 0.013 |
| CGTTAGACATGGACCGGTTTTCCCGGTAATCCGTATTTGAG (site CGTTTGACTCT) | 0.0164 |
| CGTTAGACATGGACCGGTTTTCCCGGTAATCCGTATTTGAG (site CTTTAGACTCT) | 0.00778 |
| CGTTAGACATGGACCGGTTTTCCCGGTAATCCGTATTTGAG (site GGTTAGACTCT) | 0.0132 |
| CGTTAGACATGGACCGGTTTTCCCGGTAATCCGTATTTGAG (site TGTTAGACTCT) | 0.0126 |
| CGTTAGACATGGACCGGTTTTCCCGGTAATCCGTATTTGGG (site CGTTAGACTCA) | 0 |
| CGTTAGACATGGACCGGTTTTCCCGGTAATCCGTATTTGGG (site CGTTAGACTCC) | 0.0132 |

| Sequence | recombinant UMI read abundance (log10) |
| --- | --- |
| CGTTAGACATGGACCGGTTTTCCCGGTAATCCGTATTTGGG (site CGTTAGACTCG) | 0.0116 |
| CGTTAGACATGGACCGGTTTTCCCGGTAATCCGTATTTGGG (site CGTTAGACTCT) | 0.512 |
| CGTTAGACATGGACCGGTTTTCCCGGTAATCCGTATTTGTG (site CGTTAGACTCA) | 1.14 |
| CGTTAGACATGGACCGGTTTTCCCGGTAATCCGTATTTGTG (site CGTTAGACTCC) | 0.0241 |
| CGTTAGACATGGACCGGTTTTCCCGGTAATCCGTATTTGTG (site CGTTAGACTCG) | 0.198 |
| CGTTAGACATGGACCGGTTTTCCCGGTAATCCGTATTTGTG (site CGTTAGACTCT) | 0.0332 |
| CGTTAGTCATGGACCGGTTTTCCCGGTAATCCGTATTTGAG (site CGTTAGACTCT) | 0.0321 |
| CGTTAGTCATGGACCGGTTTTCCCGGTAATCCGTATTTGAG (site CGTTAGCCTCT) | 0.0076 |
| CGTTAGTCATGGACCGGTTTTCCCGGTAATCCGTATTTGAG (site CGTTAGGCTCT) | 0.0227 |
| CGTTAGTCATGGACCGGTTTTCCCGGTAATCCGTATTTGAG (site CGTTAGTCTCT) | 2.05 |
| CGTTCACCATGGACCGGTTTTCCCGGTAATCCGTATTTGCT (site CGATCATCTAG) | 0 |
| CGTTCACCATGGACCGGTTTTCCCGGTAATCCGTATTTGCT (site CGTTCACCTAG) | 0.00366 |
| CGTTCATCATGGACCGGTTTTCCCGGTAATCCGTATTTGAT (site CGATCATCTAG) | 0 |
| CGTTCATCATGGACCGGTTTTCCCGGTAATCCGTATTTGAT (site CGTTCATCTAT) | 0 |
| CGTTCGACATGGACCGGTTTTCCCGGTAATCCGTATTTGAG (site CGTTAGACTCT) | 0.0143 |
| CGTTCGACATGGACCGGTTTTCCCGGTAATCCGTATTTGAG (site CGTTCGACTCT) | 0.635 |
| CGTTCGACATGGACCGGTTTTCCCGGTAATCCGTATTTGAG (site CGTTGGACTCT) | 0.0108 |
| CGTTCGACATGGACCGGTTTTCCCGGTAATCCGTATTTGAG (site CGTTTGACTCT) | 0.0134 |
| CGTTGAACATGGACCGGTTTTCCCGGTAATCCGTATTTGGA (site CGTTGAACTTC) | 0.945 |
| CGTTGAGCATGGACCGGTTTTCCCGGTAATCCGTATTTGCG (site CGTTGAGCTCG) | 1.2 |
| CGTTGGGCATGGACCGGTTTTCCCGGTAATCCGTATTTGCT (site CGTTAGGCTAG) | 0.41 |
| CGTTGGGCATGGACCGGTTTTCCCGGTAATCCGTATTTGCT (site CGTTCGGCTAG) | 0 |
| CGTTGGGCATGGACCGGTTTTCCCGGTAATCCGTATTTGCT (site CGTTGGGCTAG) | 1.65 |
| CGTTGGGCATGGACCGGTTTTCCCGGTAATCCGTATTTGCT (site CGTTTGGCTAG) | 0 |
| CGTTGTCCATGGACCGGTTTTCCCGGTAATCCGTATTTGAA (site CGTTGTCCTTT) | 0.00747 |
